Measurements: ChEMBL document CHEMBL1201862, “PubChem BioAssay data set” (2004)
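Dose response: 5 concentrations. Exposure: 48 h. Format: 96-well plates. Endpoint: linear interpolation; highest concentration if not reached. GI50 = concentration required for 50% inhibition of growth.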 Active and inactive are the calls of the source. Cut-off read from the data, not from the text of the source: active = GI50 up to about 1.1 µM and inactive = higher.

Key:
Test in all cases: inhibition of tumour cell growth, NCI panel, 48 h
COLO 205 = system: COLO 205
HCC 2998 = system: HCC 2998
HT-29 = system: HT-29
Hs-578T = system: Hs-578T
K562 = system: K562
KM12 = system: KM12
M14 = system: M14
MDA-N = system: MDA-N
NCI-H460 = system: NCI-H460
OVCAR-4 = system: OVCAR-4
OVCAR-5 = system: OVCAR-5
PC-3 = system: PC-3
RPMI-8226 = system: RPMI-8226
SF-539 = system: SF-539
SK-MEL-5 = system: SK-MEL-5
SNB-75 = system: SNB-75
SR = system: SR
UACC-257 = system: UACC-257
CAKI-1 = system: CAKI-1
EKVX = system: EKVX

Measured: GI50

CC(=O)OC1CC2(C)C(OC(C)=O)CC1C2(C)C (stereo not drawn)
inactive: COLO 205 > 100 µM | HCC 2998 > 100 µM | HT-29 > 100 µM | Hs-578T > 100 µM | K562 > 100 µM | KM12 > 100 µM | M14 > 100 µM | MDA-N > 100 µM | NCI-H460 > 100 µM | OVCAR-4 > 100 µM | OVCAR-5 > 100 µM | PC-3 > 100 µM | RPMI-8226 > 100 µM | SF-539 > 100 µM | SK-MEL-5 > 100 µM | SNB-75 > 100 µM | SR > 100 µM | UACC-257 > 100 µM

Cc1cc2c(=O)c3ccccc3oc2c(C#N)c1C
inactive: CAKI-1 > 100 µM | COLO 205 > 100 µM | EKVX > 100 µM | HCC 2998 > 100 µM | HT-29 43.6 µM | Hs-578T > 100 µM | K562 > 100 µM | KM12 > 100 µM | M14 > 100 µM | MDA-N > 100 µM | NCI-H460 > 100 µM | OVCAR-4 > 100 µM | OVCAR-5 > 100 µM | PC-3 40.3 µM | RPMI-8226 > 100 µM | SK-MEL-5 > 100 µM | SNB-75 > 100 µM | SR > 100 µM | UACC-257 > 100 µM

O=CC(O)C(O)C(O)C(O)C(=O)NCCCCCCCCCCCCNC(=O)C(O)C(O)C(O)C(O)C=O (stereo not drawn)
inactive: COLO 205 > 100 µM | EKVX > 100 µM | HCC 2998 > 100 µM | HT-29 > 100 µM | Hs-578T > 100 µM | KM12 > 100 µM | M14 > 100 µM | MDA-N > 100 µM | NCI-H460 > 100 µM | OVCAR-4 > 100 µM | OVCAR-5 > 100 µM | PC-3 > 100 µM | SF-539 > 100 µM | SK-MEL-5 > 100 µM | SR > 100 µM | UACC-257 > 100 µM

O=P(O)(O)c1ccc2c(c1)OCCOCCOCCOCCO2
inactive: COLO 205 > 100 µM | EKVX > 100 µM | HCC 2998 > 100 µM | HT-29 > 100 µM | Hs-578T > 100 µM | K562 > 100 µM | KM12 > 100 µM | MDA-N > 100 µM | NCI-H460 > 100 µM | PC-3 > 100 µM | RPMI-8226 > 100 µM | SF-539 > 100 µM | SK-MEL-5 > 100 µM | SNB-75 > 100 µM | SR > 100 µM | UACC-257 > 100 µM

C[n+]1c(-c2ccc(/C=N\N3CCN(/N=C/c4ccc(-c5cn6ccsc6[n+]5C)cc4)CC3)cc2)cn2ccsc21
inactive: CAKI-1 34 µM | COLO 205 16.8 µM | EKVX 43.5 µM | HT-29 40.8 µM | Hs-578T 19.2 µM | K562 11.8 µM | KM12 25.8 µM | M14 44.8 µM | MDA-N 25.7 µM | NCI-H460 26.7 µM | OVCAR-4 28.4 µM | OVCAR-5 > 100 µM | PC-3 > 100 µM | RPMI-8226 22.7 µM | SF-539 30.3 µM | SK-MEL-5 22.8 µM | SNB-75 26.9 µM | SR 41.4 µM | UACC-257 19.5 µM

COc1ccc(-n2sc3ncccc3c2=O)cc1
inactive: COLO 205 16.9 µM | EKVX 14.8 µM | HCC 2998 46.5 µM | HT-29 20.8 µM | Hs-578T 26.3 µM | KM12 19.1 µM | M14 21.9 µM | MDA-N 21.5 µM | NCI-H460 34.6 µM | OVCAR-4 > 100 µM | OVCAR-5 24.8 µM | PC-3 23.8 µM | RPMI-8226 28.3 µM | SF-539 17.3 µM | SK-MEL-5 20 µM | SNB-75 23.6 µM | SR 13.2 µM | UACC-257 18.7 µM

CC[C@@]12CCCN3CC[C@]4(c5cccc(OC)c5N(C(C)=O)[C@@H]4CC1)[C@H]32 [ASPIDOSPERMINE]
inactive: CAKI-1 > 100 µM | COLO 205 > 100 µM | EKVX 44.2 µM | HCC 2998 23 µM | HT-29 21 µM | Hs-578T 23.9 µM | KM12 84.5 µM | M14 36.5 µM | MDA-N 34.6 µM | NCI-H460 54.3 µM | OVCAR-4 92.9 µM | OVCAR-5 > 100 µM | PC-3 43 µM | RPMI-8226 38.2 µM | SF-539 78.5 µM | SK-MEL-5 44.3 µM | SR 27.7 µM | UACC-257 31.8 µM

O=C(O)CNC(=O)c1ccccc1O [SALICYLURIC ACID]
inactive: CAKI-1 > 100 µM | COLO 205 > 100 µM | EKVX > 100 µM | HT-29 > 100 µM | Hs-578T > 100 µM | K562 > 100 µM | KM12 > 100 µM | M14 > 100 µM | MDA-N > 100 µM | NCI-H460 > 100 µM | OVCAR-4 > 100 µM | OVCAR-5 > 100 µM | PC-3 > 100 µM | RPMI-8226 > 100 µM | SF-539 > 100 µM | SK-MEL-5 > 100 µM | SNB-75 > 100 µM | SR > 100 µM | UACC-257 > 100 µM
